Consider three compounds from ChEMBL document CHEMBL4138087, “Designing multi-targeted agents: An emerging anticancer drug discovery paradigm” (Eur J Med Chem, 2017).

In general, pIC50 refers to the negative decadic logarithm of the IC50, by convention in mol/L. A low value points to a high IC50.

The test system of test [1] is A-431. Put plainly: Potency index, ratio of temozolomide IC50 to compound IC50 for human A431 Cells. In kind it is functional.
Test [2] concerns A-431. Description: Antiproliferative activity in human A431 Cells after 72 hrs by SRB assay. The test is classed as functional, cell-based. The following applies: A-431, 72 h. On the technique in general: The SRB assay estimates cell density from bound dye.
Test [3] deals with Epidermal growth factor receptor (Homo sapiens, UniProt P00533). Description: Inhibition of human A431 cells derived EGFR by ELISA. Background: An ELISA detects its analyte on a solid surface through an enzyme-linked reagent.
In test [4] the target is Proto-oncogene tyrosine-protein kinase Src (Homo sapiens, UniProt P12931). Put plainly: Inhibition of Src kinase (unknown origin).

pIC50: −log10 of the molar value.

Proto-oncogene tyrosine-protein kinase Src, sequence (P12931 2-536 limits assumed): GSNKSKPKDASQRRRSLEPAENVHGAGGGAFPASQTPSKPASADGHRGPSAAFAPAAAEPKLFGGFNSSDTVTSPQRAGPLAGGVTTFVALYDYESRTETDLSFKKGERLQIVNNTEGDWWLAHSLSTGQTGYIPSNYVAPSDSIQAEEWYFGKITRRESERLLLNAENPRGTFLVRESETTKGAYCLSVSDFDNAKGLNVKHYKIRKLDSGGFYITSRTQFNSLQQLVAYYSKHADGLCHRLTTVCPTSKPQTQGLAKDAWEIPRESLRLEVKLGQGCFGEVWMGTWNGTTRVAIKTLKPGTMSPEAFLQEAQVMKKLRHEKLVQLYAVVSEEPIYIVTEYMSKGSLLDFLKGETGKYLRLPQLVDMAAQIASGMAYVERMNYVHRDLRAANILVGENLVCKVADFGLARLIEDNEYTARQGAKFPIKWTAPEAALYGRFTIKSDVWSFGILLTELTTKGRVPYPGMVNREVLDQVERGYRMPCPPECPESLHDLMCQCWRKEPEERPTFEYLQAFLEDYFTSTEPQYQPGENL
Epidermal growth factor receptor, sequence (P00533 whole entry): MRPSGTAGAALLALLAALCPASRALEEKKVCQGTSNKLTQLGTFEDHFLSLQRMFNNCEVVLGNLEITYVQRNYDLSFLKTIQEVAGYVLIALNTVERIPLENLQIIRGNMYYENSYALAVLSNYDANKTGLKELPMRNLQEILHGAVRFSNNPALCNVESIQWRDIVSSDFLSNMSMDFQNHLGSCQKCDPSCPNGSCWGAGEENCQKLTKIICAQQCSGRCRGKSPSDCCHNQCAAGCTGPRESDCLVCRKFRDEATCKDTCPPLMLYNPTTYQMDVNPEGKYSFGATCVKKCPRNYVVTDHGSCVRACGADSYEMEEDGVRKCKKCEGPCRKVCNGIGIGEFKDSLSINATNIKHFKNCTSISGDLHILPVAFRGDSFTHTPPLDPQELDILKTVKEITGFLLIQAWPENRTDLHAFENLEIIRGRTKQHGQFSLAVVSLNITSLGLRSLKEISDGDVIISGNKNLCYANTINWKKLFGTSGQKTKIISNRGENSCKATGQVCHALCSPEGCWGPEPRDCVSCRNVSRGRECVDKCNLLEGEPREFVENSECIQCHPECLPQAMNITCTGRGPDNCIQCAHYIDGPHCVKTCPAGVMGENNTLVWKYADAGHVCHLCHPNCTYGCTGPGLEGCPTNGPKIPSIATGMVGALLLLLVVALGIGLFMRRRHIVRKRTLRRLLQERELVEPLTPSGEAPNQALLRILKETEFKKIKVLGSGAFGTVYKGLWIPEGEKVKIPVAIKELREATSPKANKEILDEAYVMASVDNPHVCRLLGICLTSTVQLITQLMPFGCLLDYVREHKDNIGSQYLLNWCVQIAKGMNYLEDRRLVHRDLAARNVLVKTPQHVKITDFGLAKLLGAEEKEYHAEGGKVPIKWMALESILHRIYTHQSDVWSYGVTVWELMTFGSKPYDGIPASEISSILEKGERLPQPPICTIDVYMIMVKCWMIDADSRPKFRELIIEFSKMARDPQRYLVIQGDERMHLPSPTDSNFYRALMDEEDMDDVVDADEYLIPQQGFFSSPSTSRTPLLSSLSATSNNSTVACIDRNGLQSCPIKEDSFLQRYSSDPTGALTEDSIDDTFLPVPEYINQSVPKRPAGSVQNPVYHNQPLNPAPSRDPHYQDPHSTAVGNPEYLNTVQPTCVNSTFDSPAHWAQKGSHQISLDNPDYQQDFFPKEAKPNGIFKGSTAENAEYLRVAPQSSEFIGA

Take `C/N=N/Nc1ccc2ncnc(Nc3cccc(C)c3)c2c1`: the “Ratio IC50” value in test [1] is given as 10. This compound had a pIC50 in test [2] of 4.44.

As for `Cc1cccc(Nc2ncnc3ccc(N)cc23)c1`, the pIC50 in test [2] is 4.23. Turning to `CN(CCN(C)Cc1ccc(C(=O)Nc2ccc3ncnc(Nc4cccc(Cl)c4)c3c2)cc1)CCn1nc(-c2ccc(Cl)cc2)c2c(N)ncnc21`, the results for the pIC50 in test [3] and in test [4] were 6.49 and 5.54, respectively.
